Experiments:
live cells = test: Toxicity of HEDS to live cells; type: cell-based; conditions: live cells reducing HEDS to mercaptoethanol
Source text: In a particular embodiment, the assay of the instant invention use hydroxyethyldisulfide (HEDS), a unique non-toxic disulfide, to measure glucose dependent metabolic activity of live cells in vitro. The survival of cells is directly proportional to the conversion of HEDS into mercaptoethanol (ME) by metabolically active live cells. Dead cells fail to convert HEDS into mercaptoethanol. Accordingly, the assays of the instant invention generally encompass contacting cells (e.g., live cells) with HEDS and then monitoring or measuring the amount of extracellular ME. The amount of ME produced from HEDS can be measured in the extracellular medium since ME is extruded out quickly into the extracellular medium. Extracellular ME may be measured, for example, by a dithiobiznitrobenzoic acid (DTNB) assay or High Performance Liquid Chromatography/Electrochemical Detection (HPLC/EC): The cells of the assay may be any cell that produces NADPH, particularly mammalian cells and yeast. The percentage of live cells may be determined by the amount of ME produced.
The ME produced inside the cells is extruded into the extracellular medium. This conversion mediated by the antioxidant system can be measured in the extracellular medium without the need for cellular extract. HPLC electrochemical detector was used to quantify the conversion of HEDS into mercaptoethanol in mammalian cells in tissue culture. […]

human cells = type: cell-based
human HCT116 cells [1] = type: cell-based
human HCT116 cells [2] = test system: human HCT116 cells

Compound | toxic effect on cells (live cells) | decrease of the ME peak (HEDS conversion) (human cells) | HEDS conversion (human HCT116 cells [1]) | survival of cells (arsenite toxicity) (human HCT116 cells [2])
OCCSSCCO [HEDS, hydroxyethyldisulfide] | no toxic effect on cells |  |  | 
arsenite |  | ~70% | concentration dependent decrease in HEDS conversion | concentration dependent decrease in the survival
